Measurements reported in patent publication EP0622356A1, “Indoloylguanidine derivatives as inhibitors of sodium-hydrogen exchange” (SUMITOMO PHARMACEUTICALS COMPANY, LIMITED, priority 1993, dated 1994).
pIC50: −log10 of the molar value. Counter-ions that a name gives are not always drawn. Like-named read-outs stand apart in the source and are kept apart here. Values belong to the compound of their own block, whether it stands above or below them.

Experiments:
Na⁺/H⁺ exchanger [1] = target: T1, Na⁺/H⁺ exchanger (Rattus norvegicus, UniProt P26431); assay: Inhibition of Na⁺/H⁺ exchanger activity in vitro (change in intracellular pH during acid loading); assay type: cell-based
T1 construct: using the vascular smooth muscle cells isolated from the rat thoracic aorta; endogenous in cells; host or cells: primary vascular smooth muscle cells isolated from rat thoracic aorta
Method: That is, inhibition of the Na⁺/H⁺ exchanger activity was evaluated by the change in intracellular pH during acid loading, using the vascular smooth muscle cells isolated from the rat thoracic aorta.

Na⁺/H⁺ exchanger [2] = target: T1, Na⁺/H⁺ exchanger; assay: Inhibition of Na⁺/H⁺ exchanger activity in vitro (change in cell viability during acid loading); assay type: cell-based; conditions: minimum effective concentration, vascular smooth muscle cells isolated from the rat thoracic aorta
Method: The experiment was performed by modifying the method of Mungre et al. described in Exp. Cell Res., 193, 236 (1991). That is, inhibition of the Na⁺/H⁺ exchanger activity was evaluated by the change in cell viability during acid loading, using the vascular smooth muscle cells isolated from the rat thoracic aorta.
The compounds of the present invention shown in Examples were evaluated by the minimum effective concentration (MEC) for the inhibition of the Na⁺/H⁺ exchanger activity.

[3] = test system: arrhythmia induced by reperfusion after rat coronary artery occlusion; assay: Inhibition of ischemia- and reperfusion-induced arrhythmia in vivo
Method: The experiment was performed by modifying the method of Crome et al. described in J. Cardiovasc. […] That is, the prevention of arrhythmia induced by reperfusion after rat coronary artery occlusion was evaluated by the incidence of ventricular tachycardia and ventricular fibrillation as well as the mortality.

[4] = vascular smooth muscle cells isolated from the rat thoracic aorta, change in intracellular pH during acid loading, read-out: IC₅₀

T1 sequence (P26431 whole entry): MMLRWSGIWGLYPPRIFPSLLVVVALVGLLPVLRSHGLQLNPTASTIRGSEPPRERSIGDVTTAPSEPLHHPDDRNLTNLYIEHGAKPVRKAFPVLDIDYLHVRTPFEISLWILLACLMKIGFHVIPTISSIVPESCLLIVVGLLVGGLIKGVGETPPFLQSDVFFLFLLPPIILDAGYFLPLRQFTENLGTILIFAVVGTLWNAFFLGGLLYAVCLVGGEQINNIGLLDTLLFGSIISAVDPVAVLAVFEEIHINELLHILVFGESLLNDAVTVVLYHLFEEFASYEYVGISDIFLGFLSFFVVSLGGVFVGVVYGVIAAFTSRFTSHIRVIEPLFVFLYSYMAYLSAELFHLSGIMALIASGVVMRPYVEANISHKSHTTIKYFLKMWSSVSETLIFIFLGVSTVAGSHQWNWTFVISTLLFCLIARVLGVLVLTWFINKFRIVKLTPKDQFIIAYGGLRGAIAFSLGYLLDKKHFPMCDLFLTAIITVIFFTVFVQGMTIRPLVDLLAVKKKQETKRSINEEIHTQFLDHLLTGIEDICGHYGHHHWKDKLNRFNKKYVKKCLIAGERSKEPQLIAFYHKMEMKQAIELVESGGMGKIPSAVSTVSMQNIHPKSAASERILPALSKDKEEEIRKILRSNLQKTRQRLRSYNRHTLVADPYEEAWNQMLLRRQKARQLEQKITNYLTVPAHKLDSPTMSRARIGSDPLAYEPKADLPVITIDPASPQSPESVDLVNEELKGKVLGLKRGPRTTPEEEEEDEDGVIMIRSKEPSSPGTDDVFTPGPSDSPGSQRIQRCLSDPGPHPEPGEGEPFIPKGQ

- pIC50 (Na⁺/H⁺ exchanger [1]; [4]): 6.85
SMILES: NC(N)=NC(=O)c1nc(Cl)c(N2CCCCCC2)nc1N [5-Hexamethylene amiloride, reference compound]
- Inhibition of Na^+/H^+ Exchanger MEC (Na⁺/H⁺ exchanger [2]): 0.3 µM

SMILES: CN(C)c1nc(N)c(C(=O)N=C(N)N)nc1Cl [Dimethyl amiloride, reference compound]
- pIC50 (Na⁺/H⁺ exchanger [1]): 6.22
- Inhibition of Na^+/H^+ Exchanger MEC (Na⁺/H⁺ exchanger [2]): 3.0 µM

SMILES: CCN(c1nc(N)c(C(=O)NC(=N)N)nc1Cl)C(C)C [EIPA, 5-N-ethyl-N-isopropyl amiloride, reference compound]
- Incidence of Ventricular Fibrillation ([3]; dose 0.3 mg/kg): 56%
- Incidence of Ventricular Tachycardia ([3]; dose 0.3 mg/kg): 100%
- Mortality ([3]; dose 0.3 mg/kg): 44%
- Incidence of Ventricular Fibrillation ([3]; dose 1 mg/kg): 0%
- Incidence of Ventricular Tachycardia ([3]; dose 1 mg/kg): 43%
- Mortality ([3]; dose 1 mg/kg): 0%

SMILES: Cn1c(C(=O)N=C(N)N)cc2ccccc21 [Example 1, 1-methyl-2-indoloylguanidine hydrochloride]
- pIC50 (Na⁺/H⁺ exchanger [1]; [4]): 7.24
- Incidence of Ventricular Fibrillation ([3]; dose 0.1 mg/kg): 10%
- Incidence of Ventricular Tachycardia ([3]; dose 0.1 mg/kg): 70%
- Mortality ([3]; dose 0.1 mg/kg): 10%
- Incidence of Ventricular Fibrillation ([3]; dose 0.3 mg/kg): 0%
- Incidence of Ventricular Tachycardia ([3]; dose 0.3 mg/kg): 50%
- Mortality ([3]; dose 0.3 mg/kg): 0%

- pIC50 (Na⁺/H⁺ exchanger [1]; [4]): 7.30
SMILES: Cn1c(C(=O)N=C(N)N)cc2cccc(Cl)c21 [Example 8, 7-Chloro-1-methyl-2-indoloylguanidine hydrochloride]

- pIC50 (Na⁺/H⁺ exchanger [1]; [4]): 5.68
SMILES: COc1cccc2c1cc(C(=O)N=C(N)N)n2C [Example 22, 4-Methoxy-1-methyl-2-indoloylguanidine hydrochloride]

- pIC50 (Na⁺/H⁺ exchanger [1]; [4]): 9.05
SMILES: Cn1c(C(=O)N=C(N)N)cc2c(C(F)(F)F)cccc21 [Example 29, 1-Methyl-4-trifluoromethyl-2-indoloylguanidine hydrochloride]

- pIC50 (Na⁺/H⁺ exchanger [1]; [4]): 7.70
SMILES: Cn1c(C(=O)NC(=N)N)cc2c(F)cccc21 [Example 55, 4-Fluoro-1-methyl-2-indoloylguanidine hydrochloride]

SMILES: CC(C)Oc1cccc2c1cc(C(=O)NC(=N)N)n2C [Example 58, 4-Isopropoxy-1-methy1-2-indoloylguanidine hydrochloride]
- Inhibition of Na^+/H^+ Exchanger MEC (Na⁺/H⁺ exchanger [2]): 0.3 µM

- pIC50 (Na⁺/H⁺ exchanger [1]; [4]): 8.00
SMILES: Cn1c(C(=O)N=C(N)N)cc2c(Cl)ccc(OCCCN)c21 [Example 118, 7-(3-Aminopropoxy)-4-chloro-1-methyl-2-indoloylguanidine hydrochloride]
